Experimental data: patent publication US8148391B2 (Cephalon, Inc., priority 2006, dated 2012)
Where two headings read alike, the source gives them in different places. Each block holds one compound with its values, some of them ahead of it.

How the values were obtained:
[1] = target: T1, baculovirus-expressed ALK (Homo sapiens, UniProt Q9UM73); test: ALK Kinase Assay (ELISA-type, time-resolved fluorescence); assay type: biochemical
T1 construct: host or cells: baculovirus expression system
How it was run: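 Wells were coated with phospholipase C-γ at 10 μg/mL in Tris-buffered saline. Adding 30 ng/ml enzyme started the reaction, which ran at 37° C for 15 minutes before Eu-N1 PT66 antibody detection. Percent inhibition versus log10 concentration gave IC50 by variable-slope fit.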

[2] = target: T2, c-Met (cytoplasmic domain) (Homo sapiens, UniProt P08581); test: c-Met Kinase Assay (same methods as for ALK, with modifications); assay type: biochemical
T2 construct: 10 ng/mL c-Met (cytoplasmic domain, Invitrogen Corporation #PV3143); purchased Invitrogen Corporation PV3143
How it was run: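 Steps: coat wells with PLC-γ (10 μg/mL, Tris-buffered saline); add 10 ng/mL c-Met cytoplasmic domain to initiate; incubate 15 min, 37° C; detect phosphoproduct via Eu-N1 PT66 antibody.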

[3] = ALK kinase inhibition, 1 μM ATP (Km level), read-out: ALK Activity
[4] = c-Met kinase inhibition, 1 μM ATP (Km level), read-out: cMet Activity
[5] = 1 μM ATP (Km level), read-out: ALK Activity (ALK Kinase Inhibition, IC50)
[6] = 1 μM ATP (Km level), read-out: cMet Activity (c-Met Kinase Inhibition, IC50)
[7] = ALK kinase inhibition, 1 μM ATP, read-out: ALK Activity
[8] = c-Met kinase inhibition, 1 μM ATP, read-out: cMet Activity
[9] = 1 μM ATP (Km level), 30 ng/ml ALK, 37° C., 15 minutes, read-out: ALK Activity (ALK kinase inhibition, IC50 class)
[10] = 1 μM ATP (Km level), 10 ng/mL c-Met, read-out: cMet Activity (c-Met kinase inhibition, IC50 class)

T2 sequence (P08581 956-1390 limits assumed): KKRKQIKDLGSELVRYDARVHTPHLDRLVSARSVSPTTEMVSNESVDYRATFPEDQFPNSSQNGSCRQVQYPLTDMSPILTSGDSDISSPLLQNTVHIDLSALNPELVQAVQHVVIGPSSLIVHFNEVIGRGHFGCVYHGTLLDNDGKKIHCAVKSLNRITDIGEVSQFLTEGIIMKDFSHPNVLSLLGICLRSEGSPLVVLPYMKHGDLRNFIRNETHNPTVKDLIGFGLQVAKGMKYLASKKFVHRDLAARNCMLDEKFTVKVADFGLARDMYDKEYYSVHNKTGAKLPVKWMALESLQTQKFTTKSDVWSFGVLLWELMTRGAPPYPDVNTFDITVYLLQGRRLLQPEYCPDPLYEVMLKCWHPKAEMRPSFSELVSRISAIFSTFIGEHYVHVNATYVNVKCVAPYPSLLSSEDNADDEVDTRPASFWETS
T1 sequence (Q9UM73 19-1620): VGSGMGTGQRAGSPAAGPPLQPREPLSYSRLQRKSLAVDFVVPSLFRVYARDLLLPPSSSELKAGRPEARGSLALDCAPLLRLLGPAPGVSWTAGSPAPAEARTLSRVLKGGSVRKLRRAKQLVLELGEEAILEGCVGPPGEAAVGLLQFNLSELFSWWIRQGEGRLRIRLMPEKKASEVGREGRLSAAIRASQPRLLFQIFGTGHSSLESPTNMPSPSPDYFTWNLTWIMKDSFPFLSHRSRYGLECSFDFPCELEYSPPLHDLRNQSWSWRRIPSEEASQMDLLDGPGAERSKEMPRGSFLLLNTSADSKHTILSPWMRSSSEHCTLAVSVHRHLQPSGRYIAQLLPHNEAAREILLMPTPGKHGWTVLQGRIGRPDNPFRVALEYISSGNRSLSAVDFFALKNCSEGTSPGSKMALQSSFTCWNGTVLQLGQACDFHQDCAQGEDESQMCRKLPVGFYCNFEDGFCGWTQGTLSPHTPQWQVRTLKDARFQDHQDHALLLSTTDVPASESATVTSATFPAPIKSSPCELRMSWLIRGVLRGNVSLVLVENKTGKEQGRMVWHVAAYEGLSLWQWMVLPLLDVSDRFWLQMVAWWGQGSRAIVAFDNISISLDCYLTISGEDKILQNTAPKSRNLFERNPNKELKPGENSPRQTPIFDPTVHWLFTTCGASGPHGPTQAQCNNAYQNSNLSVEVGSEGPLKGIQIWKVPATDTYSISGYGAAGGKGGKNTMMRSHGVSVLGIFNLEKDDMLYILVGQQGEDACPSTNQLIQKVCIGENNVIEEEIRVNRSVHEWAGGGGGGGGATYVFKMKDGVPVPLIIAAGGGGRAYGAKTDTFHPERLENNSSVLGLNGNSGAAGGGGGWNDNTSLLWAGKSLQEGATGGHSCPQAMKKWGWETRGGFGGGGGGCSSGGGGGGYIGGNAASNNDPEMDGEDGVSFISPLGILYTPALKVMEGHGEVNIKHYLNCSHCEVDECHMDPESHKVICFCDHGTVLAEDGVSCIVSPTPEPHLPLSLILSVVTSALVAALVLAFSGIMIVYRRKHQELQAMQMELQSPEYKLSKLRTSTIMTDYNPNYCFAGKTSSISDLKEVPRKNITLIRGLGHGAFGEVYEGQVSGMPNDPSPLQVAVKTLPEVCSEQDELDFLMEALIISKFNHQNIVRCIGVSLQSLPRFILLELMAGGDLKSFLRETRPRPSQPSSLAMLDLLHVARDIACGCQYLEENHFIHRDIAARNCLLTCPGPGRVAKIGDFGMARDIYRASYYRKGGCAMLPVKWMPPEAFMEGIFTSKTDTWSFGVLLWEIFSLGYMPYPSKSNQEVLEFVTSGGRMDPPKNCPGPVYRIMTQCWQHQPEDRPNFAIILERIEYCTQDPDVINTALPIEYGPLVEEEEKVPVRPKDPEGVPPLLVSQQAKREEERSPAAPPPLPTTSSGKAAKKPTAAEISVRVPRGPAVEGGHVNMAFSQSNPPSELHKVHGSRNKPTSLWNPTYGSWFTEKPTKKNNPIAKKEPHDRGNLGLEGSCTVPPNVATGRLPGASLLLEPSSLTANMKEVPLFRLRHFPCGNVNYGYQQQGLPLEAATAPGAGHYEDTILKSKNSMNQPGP

SMILES: COCC(COC)N1CCc2cc(Nc3ncc(Cl)c(N[C@H]4[C@@H](C(N)=O)[C@@H]5C=C[C@H]4C5)n3)c(OC)cc2CC1 [Example 815, (1S,2S,3R,4R)-3-{5-Chloro-2-[8-methoxy-3-(2-methoxy-1-methoxymethyl-ethyl)-2,3,4,5-tetrahydro-1H-benzo[d]azepin-7-ylamino]-pyrimidin-4-ylamino}-bicyclo[2.2.1]hept-5-ene-2-carboxylic acid amide]
IC50 [1, 5]: < 100 nM | IC50 [2, 6]: > 10000 nM

SMILES: CCN([C@@H]1CCCC[C@H]1Nc1nc(Nc2cc3c(cc2OC)CCN(CCOC)CC3)ncc1Cl)S(C)(=O)=O [Example 1677, N-((1R,2R)-2-{5-Chloro-2-[8-methoxy-3-(2-methoxy-ethyl)-2,3,4,5-tetrahydro-1H-benzo[d]azepin-7-ylamino]-pyrimidin-4-ylamino}-cyclohexyl)-N-ethyl-methanesulfonamide]
IC50 [1, 7]: < 100 nM | IC50 [2, 8]: > 10000 nM

SMILES: CN1CCN(C2CCN(C3CCc4ccc(Nc5ncc(Cl)c(N[C@@H]6CCCC[C@H]6NS(C)(=O)=O)n5)cc4CC3)CC2)CC1 (stereo partly drawn) [Example 886, N-[(1R,2R)-2-(5-Chloro-2-{7-[4-(4-methyl-piperazin-1-yl)-piperidin-1-yl]-6,7,8,9-tetrahydro-5H-benzocyclohepten-2-ylamino}-pyrimidin-4-ylamino)-cyclohexyl]-methanesulfonamide]
IC50 [1, 5]: < 100 nM | IC50 [2, 6]: 1000 to 10000 nM

SMILES: COc1cc2c(cc1Nc1ncc(Cl)c(Nc3ccccc3S(=O)(=O)C(C)C)n1)CCN(CC(=O)N1CCCC1)CC2 [Example 1158, 2-(7-{5-Chloro-4-[2-(propane-2-sulfonyl)-phenylamino]-pyrimidin-2-ylamino}-8-methoxy-1,2,4,5-tetrahydro-benzo[d]azepin-3-yl)-1-pyrrolidin-1-yl-ethanone]
IC50 [1, 9]: < 100 nM | IC50 [2, 10]: 1000 to 10000 nM

SMILES: COCCN1CCc2ccc(Nc3ncc(Cl)c(Nc4ccccc4-n4cccn4)n3)cc2CC1 [Example 316, 5-Chloro-N*2*-[3-(2-methoxy-ethyl)-2,3,4,5-tetrahydro-1H-benzo[d]azepin-7-yl]-N*4*-(2-pyrazol-1-yl-phenyl)-pyrimidine-2,4-diamine]
IC50 [1, 3]: < 100 nM | IC50 [2, 4]: 100 to 1000 nM

SMILES: NC(=O)C1C2C=CC(C2)C1Nc1nc(Nc2ccc3c(c2)CNC(=O)NC3)ncc1Cl (stereo not drawn) [Example 228, (2-exo,3-exo)-3-[5-Chloro-2-(3-oxo-2,3,4,5-tetrahydro-1H-benzo[e][1,3]diazepin-7-ylamino)-pyrimidin-4-ylamino]-bicyclo[2.2.1]hept-5-ene-2-carboxylic acid amide]
IC50 [1, 3]: < 100 nM | IC50 [2, 4]: 100 to 1000 nM

Further lines, results first:

IC50 [1, 3]: 100 to 1000 nM | IC50 [2, 4]: > 10000 nM
SMILES: Cn1ccnc1-c1ccccc1Nc1nc(Nc2ccc3c(c2)CCC(F)(F)CC3)ncc1Cl [Example 219, 5-Chloro-N*2*-(7,7-difluoro-6,7,8,9-tetrahydro-5H-benzocyclohepten-2-yl)-N*4*-[2-(1-methyl-1H-imidazol-2-yl)-phenyl]-pyrimidine-2,4-diamine]

IC50 [1, 7]: 100 to 1000 nM | IC50 [2, 8]: < 100 nM
SMILES: Cc1nnc(-c2ccccc2Nc2nc(Nc3ccc4c(c3)CCOC(=O)N4C)ncc2Cl)o1 [Example 1786, 2-{5-Chloro-4-[2-(5-methyl-[1,3,4]oxadiazol-2-yl)-phenylamino]-pyrimidin-2-ylamino}-5-methyl-8,9-dihydro-5H-7-oxa-5-aza-benzocyclohepten-6-one]

IC50 [1, 3]: < 100 nM | IC50 [2, 4]: 100 to 1000 nM
SMILES: NC(=O)C1C2C=CC(C2)C1Nc1nc(Nc2ccc3c(c2)CCN(CC(O)C(F)(F)F)CC3)ncc1Cl (mixture of isomers) [Example 334, (2-exo, 3-exo)-3-{5-Chloro-2-[3-((R)-3,3,3-trifluoro-2-hydroxy-propyl)-2,3,4,5-tetrahydro-1H-benzo[d]azepin-7-ylamino]-pyrimidin-4-ylamino}-bicyclo[2.2.1]hept-5-ene-2-carboxylic acid amide]

IC50 [1, 9]: < 100 nM | IC50 [2, 10]: > 10000 nM
SMILES: CCN1C(=O)C(N)CCc2c1ccc(Nc1ncc(Cl)c(Nc3ccc(N(C)C)cc3OC)n1)c2OC (centres unmarked) [Example 1343, 3-Amino-7-[5-chloro-4-(4-dimethylamino-2-methoxy-phenylamino)-pyrimidin-2-ylamino]-1-ethyl-6-methoxy-1,3,4,5-tetrahydro-benzo[b]azepin-2-one]
